Test results published in the OPERA property sets (Mansouri et al. 2018).

Settings: not given

Q: Which melting point does the source give for C=C[C@H]1C[N@@]2CC[C@H]1C[C@H]2[C@H](O)c1ccnc2ccc(OC)cc12.Cl here?
A: 159 °C

Q: With COc1ccc2ncccc2c1 as the molecule, how does the boiling point read?
A: 306 °C

Q: What about the melting point of the same molecule?
A: 26.5 °C

Q: For CCOP(=O)(NC(C)C)Oc1ccc(S(C)=O)c(C)c1 (stereo not given), which log10 Koc (L/kg) is on record?
A: 1.57

Q: With Oc1cccc(-c2ccccc2)c1 as the molecule, how does the melting point read?
A: 78 °C

Q: With C[C@@H]1C[C@H](N(C)C)[C@@H](O)[C@H](O[C@H]2[C@@H](C)C[C@@H](C)C(=O)C=C[C@@H](C)[C@@H]([C@@H](C)O)OC(=O)[C@@H]2C)O1 as the molecule, how does the melting point read?
A: 157 °C

Q: Which results are given for CCCC1CCCC1?
A: boiling point: 131 °C; log10 vapour pressure (mmHg): 1.09; melting point: -117 °C

Q: For O=C(Nc1ccc(F)cc1F)c1cccnc1Oc1cccc(C(F)(F)F)c1, which log10 Henry constant (atm·m³/mol) is on record?
A: -6.49

Q: What about the log10 vapour pressure (mmHg) of the same molecule?
A: -7.5

Q: What about the melting point of the same molecule?
A: 160 °C

Q: With C=COCCCl as the molecule, how does the boiling point read?
A: 108 °C

Q: What about the log10 vapour pressure (mmHg) of the same molecule?
A: 1.43

Q: And the melting point?
A: -70 °C

Q: What about the ready biodegradability of the same molecule?
A: readily biodegradable

Q: With COC(C)CCOC(C)=O (stereo not given) as the molecule, how does the ready biodegradability read?
A: readily biodegradable

Q: With CNC(=O)N(C)C as the molecule, how does the boiling point read?
A: 232 °C

Q: And the melting point?
A: 75.5 °C

Q: Which log10 vapour pressure (mmHg) does the source give for CCOP(=O)(OCC)Oc1ccc([N+](=O)[O-])cc1 here?
A: -5.96

Q: What about the melting point of the same molecule?
A: 300 °C

Q: With CC1C2Cc3ccc(O)cc3C1(C)CCN2CC1CC1 (stereo not given) as the molecule, how does the melting point read?
A: 202 °C

Q: Which boiling point does the source give for CCN(CC)c1ccc(Cl)cc1 here?
A: 252 °C

Q: And the melting point?
A: 45.5 °C

Q: For CCC1(C)CC(=O)NC(=O)C1, which melting point is on record?
A: 126 °C

Q: Which boiling point does the source give for O=C(O)C(Cl)Cl here?
A: 194 °C

Q: And the log10 Henry constant (atm·m³/mol)?
A: -8.08

Q: What about the log10 vapour pressure (mmHg) of the same molecule?
A: -0.748

Q: What about the melting point of the same molecule?
A: 13.5 °C

Q: What about the ready biodegradability of the same molecule?
A: readily biodegradable

Q: For IC(I)(I)I, which melting point is on record?
A: 171 °C

Q: What does the source list for C=Cc1ccc(C)cc1?
A: boiling point: 173 °C; log10 vapour pressure (mmHg): 0.258; melting point: -34.1 °C

Q: Which melting point does the source give for OCC1c2ccccc2-c2ccccc21 here?
A: 106 °C

Q: Which melting point does the source give for Nc1ccc2nccnc2c1 here?
A: 159 °C

Q: Which boiling point does the source give for Oc1cc(O)c(Cl)cc1Cl here?
A: 254 °C

Q: And the melting point?
A: 113 °C

Q: For O=C(c1ccccc1)c1ccc(-c2ccccc2)cc1, which boiling point is on record?
A: 420 °C

Q: What about the melting point of the same molecule?
A: 100 °C

Q: For O=C1NCCCN1, which melting point is on record?
A: 265 °C

Q: Which melting point does the source give for COC(=O)C(C)N(C(=O)c1ccccc1)c1ccc(F)c(Cl)c1 (stereo not given) here?
A: 85 °C

Q: Which melting point does the source give for Cc1cc(CO)c(O)c(CO)c1 here?
A: 129 °C

Q: Which results are given for O=[N+]([O-])c1ccc(N=Nc2ccccc2)cc1?
A: log10 vapour pressure (mmHg): -5.93; melting point: 133 °C

Q: For CCCCC(CC)CO[Si](OCC(CC)CCCC)(OCC(CC)CCCC)OCC(CC)CCCC (stereo not given), which boiling point is on record?
A: 419 °C

Q: Which boiling point does the source give for COCC(C)OC (stereo not given) here?
A: 96 °C

Q: For COc1ccc(CCCC(=O)O)cc1, which melting point is on record?
A: 57.5 °C

Q: For CCC1(c2ccccc2)C(=O)N(COC)C(=O)N(COC)C1=O, which melting point is on record?
A: 117 °C

Q: Which melting point does the source give for O=C(O)c1c[nH]c2ccccc12 here?
A: 206 °C

Q: Which ready biodegradability does the source give for C1=C\CC/C=C\CC/1 here?
A: not readily biodegradable

Q: With CCCCCCC(C)(C)O as the molecule, how does the boiling point read?
A: 178 °C

Q: With O=C(O)CCCCCBr as the molecule, how does the melting point read?
A: 35 °C

Q: For NN1CCOCC1, which boiling point is on record?
A: 166 °C

Q: For Nc1cccc2cc(O)ccc12, which melting point is on record?
A: 191 °C

Q: For CC(=O)c1cccnc1, which boiling point is on record?
A: 220 °C

Q: And the log10 Henry constant (atm·m³/mol)?
A: -7.67

Q: And the melting point?
A: 13.5 °C

Q: For CCCCC(CC)CCl (stereo not given), which boiling point is on record?
A: 172 °C

Q: What about the log10 vapour pressure (mmHg) of the same molecule?
A: 0.0792

Q: Which boiling point does the source give for CC(C)=CC(C)C here?
A: 83.4 °C

Q: And the melting point?
A: -128 °C

Q: With COC(=O)c1ccccc1I as the molecule, how does the boiling point read?
A: 280 °C

Q: With O=C1CN=C(c2ccccc2)c2cc(Cl)ccc2N1CC(F)(F)F as the molecule, how does the melting point read?
A: 165 °C

Q: With COc1ccc(C=CC(=O)c2ccc(OC)cc2OC)cc1 as the molecule, how does the melting point read?
A: 97 °C

Q: What does the source list for CCCC(C)I (stereo not given)?
A: boiling point: 150 °C; log10 vapour pressure (mmHg): 1.04; melting point: -50 °C

Q: For COC(=O)C1CC(=O)N(C)C1 (stereo not given), which melting point is on record?
A: 15 °C

Q: For CCCCCCCOC(=O)CCCCCC, which boiling point is on record?
A: 277 °C

Q: What about the melting point of the same molecule?
A: -33 °C

Q: With CC/C=C\CO as the molecule, how does the boiling point read?
A: 138 °C

Q: Which results are given for Cc1cc(C(C)C)ccc1O?
A: boiling point: 230 °C; melting point: 8.6 °C

Q: Which boiling point does the source give for COC(=O)c1ccccc1OC here?
A: 246 °C

Q: Which melting point does the source give for O=C1OC(=O)c2cccc3cccc1c23 here?
A: 270 °C

Q: With NCCC(=O)N[C@@H](Cc1c[nH]cn1)C(=O)O as the molecule, how does the melting point read?
A: 260 °C

Q: What does the source list for CCO[Si](c1ccccc1)(c1ccccc1)c1ccccc1?
A: boiling point: 344 °C; melting point: 65 °C

Q: Which melting point does the source give for CCCCCCCCCCCCCCCCOC(=O)CCCCCCCCCCCCCCC here?
A: 54 °C

Q: Which ready biodegradability does the source give for CCCCCCCCCc1cccc(O)c1CCCCCCCCC here?
A: not readily biodegradable

Q: Which melting point does the source give for O=C1OC(c2ccccc2)(c2ccccc2)c2ccccc21 here?
A: 120 °C

Q: For CCOP(=O)(OCC)SCc1ccccc1, which log10 Koc (L/kg) is on record?
A: 2.4

Q: For CCCCCCCCCCCCCCCCCCCC(=O)OC, which melting point is on record?
A: 54.5 °C

Q: Which melting point does the source give for CC(CN(C)C)CN1c2ccccc2CCc2ccccc21 (stereo not given) here?
A: 45 °C

Q: Which melting point does the source give for NCCCCCCCCCCN here?
A: 62.5 °C

Q: For CN(C)C#N, which boiling point is on record?
A: 164 °C

Q: With CCCC(O)/C=C/C=C/C=C/C#CC#CCCCO (stereo not given) as the molecule, how does the melting point read?
A: 54 °C

Q: Which melting point does the source give for O=C(O)c1ccc(NS(=O)(=O)Cc2ccccc2)cc1 here?
A: 230 °C

Q: With O=C(O)c1ccccc1-c1ccc(C(F)(F)F)cc1 as the molecule, how does the melting point read?
A: 170 °C

Q: Which melting point does the source give for O=C1C=CC(=O)c2ccccc21 here?
A: 128 °C

Q: What about the ready biodegradability of the same molecule?
A: not readily biodegradable

Q: With Fc1ccccn1 as the molecule, how does the boiling point read?
A: 127 °C

Q: For N#Cc1ccccc1-c1ccccc1, which melting point is on record?
A: 41 °C

Q: With CC(=O)CC(c1ccc([N+](=O)[O-])cc1)c1c(O)c2ccccc2oc1=O (stereo not given) as the molecule, how does the melting point read?
A: 197 °C

Q: Which log10 Koc (L/kg) does the source give for Brc1cc(Br)c(-c2c(Br)cc(Br)cc2Br)c(Br)c1 here?
A: 4.87

Q: Which melting point does the source give for CCCC(C)C1(CC)C(=O)N=C(O)NC1=O (stereo not given) here?
A: 130 °C

Q: With NCc1ccco1 as the molecule, how does the boiling point read?
A: 146 °C

Q: Which results are given for ClC1=C(Cl)C(Cl)(C2(Cl)C(Cl)=C(Cl)C(Cl)=C2Cl)C(Cl)=C1Cl?
A: log10 Koc (L/kg): 4.52; log10 vapour pressure (mmHg): -5.66; melting point: 122 °C

Q: With O=[N+]([O-])c1ccc(O)c2ncccc12 as the molecule, how does the melting point read?
A: 180 °C

Q: Which boiling point does the source give for CCNc1ccccc1C here?
A: 216 °C

Q: With Brc1c(Br)c(Br)c(Br)c(Br)c1Br as the molecule, how does the melting point read?
A: 326 °C

Q: And the ready biodegradability?
A: not readily biodegradable

Q: Which melting point does the source give for NS(=O)(=O)c1ccc(SCCCO)c(F)c1 here?
A: 110 °C

Q: Which melting point does the source give for CCn1cc(C(=O)O)c(=O)c2ccc(C)nc21 here?
A: 230 °C

Q: What does the source list for CN(C)c1ccc(C=O)cc1?
A: log10 vapour pressure (mmHg): -2.43; melting point: 74.5 °C

Q: With O=[N+]([O-])c1ccccc1CCO as the molecule, how does the boiling point read?
A: 267 °C

Q: And the melting point?
A: 2 °C

Q: Which log10 Henry constant (atm·m³/mol) does the source give for Clc1ccc(-c2ccc(Cl)c(Cl)c2)cc1 here?
A: -4

Q: For Nc1c(Cl)ccc(Cl)c1C(=O)O, which melting point is on record?
A: 155 °C

Q: Which results are given for c1ccc2c(c1)ccc1[nH]c3ccc4ccccc4c3c12?
A: log10 Koc (L/kg): 6.03; melting point: 158 °C

Q: Which melting point does the source give for N=C(N)N here?
A: 50 °C

Q: For Cc1ccc(Cl)cc1C, which boiling point is on record?
A: 194 °C

Q: What about the melting point of the same molecule?
A: -6 °C

Q: Which log10 vapour pressure (mmHg) does the source give for CC=CCCCC here?
A: 1.68

Q: For CC(=O)Oc1cccc2ccccc12, which melting point is on record?
A: 44.5 °C

Q: For O=C(O)C(F)(F)C(F)F, which boiling point is on record?
A: 134 °C

Q: With O=c1[nH]sc2ccccc12 as the molecule, how does the ready biodegradability read?
A: not readily biodegradable

Q: Which results are given for O=C=Nc1ccc(Cl)cc1?
A: boiling point: 204 °C; log10 vapour pressure (mmHg): -0.712; melting point: 30 °C

Q: Which log10 vapour pressure (mmHg) does the source give for COc1ccc(C(=O)O)cc1OC here?
A: -3.61

Q: And the melting point?
A: 181 °C

Q: Which melting point does the source give for O=C[C@H](O)[C@@H](O)[C@@H](O)[C@H](O)C(=O)O here?
A: 166 °C

Q: For CCN(CC)CCNC(=O)c1cc(Cl)c(N)cc1OC, which melting point is on record?
A: 147 °C

Q: Which boiling point does the source give for CCOC(=O)C(C)(C)C here?
A: 118 °C

Q: And the log10 vapour pressure (mmHg)?
A: 1.25

Q: What about the melting point of the same molecule?
A: -89.5 °C

Q: With Cc1ccc(/N=N/c2c(O)ccc3ccccc23)c(C)c1 as the molecule, how does the melting point read?
A: 166 °C

Same assay, conditions: fish

Q: With C=Cc1ccc(C)cc1 as the molecule, how does the log10 BCF read?
A: 1.5

Q: With Brc1cc(Br)c(-c2c(Br)cc(Br)cc2Br)c(Br)c1 as the molecule, how does the log10 BCF read?
A: 4.66

Q: What about the log10 biotransformation half-life (days) of the same molecule?
A: 2.66

Q: What does the source list for CCOP(=S)(NC(C)CC)Oc1cc(C)ccc1[N+](=O)[O-] (stereo not given)?
A: log10 BCF: 2.46; log10 biotransformation half-life (days): -0.2

Q: Which log10 BCF does the source give for Brc1c(Br)c(Br)c(Br)c(Br)c1Br here?
A: 3

Q: And the log10 biotransformation half-life (days)?
A: 0.43
